Experimental data reported in patent EP2019109A1, “Trimetal-arene clusters with anticancer activity” (Université de Neuchâtel, priority 2007, dated 2009).

What was measured:
[1] = test system: A2780cisR ovarian carcinoma cell line; test: MTT assay, inhibition of cell viability; format: cell-based; settings: for IC50: cisplatin-resistant A2780cisR ovarian carcinoma cell line, 72 hours of incubation, MTT assay; for cytotoxic activity (in words): A2780cisR, statement drawn from Table 1
Protocol: (§1) The effects of the clusters on the cancer cell growth were evaluated after an exposure period of 72 hours using the MTT [3-(4,5-dimethylthiazol-2-yl)-2,5-diphenyltetrazolium bromide] assay which measures mitochondrial dehydrogenase activity as an indication of cell viability. In addition, the dose-response curves for 1a and 1b against the two cell lines are illustrated in Figures 2a and 2b. Table 1. Inhibition of cell viability (IC50) of complexes on A2780 and A2780cisR ovarian carcinoma cell lines after 72 hours of incubation, determined using MTT assay.

[2] = test system: A2780 ovarian carcinoma cell line; test: MTT assay, inhibition of cell viability; format: cell-based; settings: for IC50: A2780 ovarian carcinoma cell line, 72 hours of incubation, MTT assay; for cytotoxic activity (in words): A2780, statement drawn from Table 1
Protocol: as §1

Compound	IC50 [1] [µM]	IC50 [2] [µM]	increase in cisplatin resistance ([1]; A2780cisR versus A2780) [fold]	cytotoxic activity (in words) [1]	cytotoxic activity (in words) [2]
N.N.[Cl][Pt][Cl] [Cisplatin, reference compound]	8.7 ± 1.6	1.5 ± 0.3	6		
Cc1ccc(C(C)C)cc1.[Cl][Ru]([Cl])[PH]12CN3CN(CN(C3)C1)C2 [RAPTA-C, reference compound]	> 100	> 100			
[(η^6-C6H6)(η^6-C6Me6)2Ru3(µ-H)3(µ3-O)][BF4] [Compound 1a]	14.6 ± 0.7	9.8 ± 0.2		remarkably active	remarkably active
[(η^6-C6H6)(η^6-1,4-^iPrC6H4Me)(η^6-C6Me6)Ru3(µ-H)3(µ3-O)][BF4] [Compound 1b]	28.9 ± 2.8	9.1 ± 0.9		remarkably active	remarkably active

More lines, main results first:

IC50 [1] [µM]	IC50 [2] [µM]	Compound	increase in cisplatin resistance ([1]; A2780cisR versus A2780) [fold]	cytotoxic activity (in words) [1]	cytotoxic activity (in words) [2]
> 100	> 100	[(η^6-C6H5Me)4Ru4(µ-H)4][BF4]2 [Compound 2b]			
> 100	> 100	[(η^6-C6H6)4Ru4(µ-H)4][BF4]2 [Compound 2a]			
> 100	> 100	[(η^6-C6H6)4Ru4(µ-H)3(µ-OH)][Cl]2 [Compound 2c]			
